Holding throughout (assay type): in vivo
Test [1] deals with Staphylococcus aureus. The experiment in a line: Anti-inflammatory action: peripheral blood leukocytes of mice surviving to day 7 after sepsis induction. The conditions noted are these: mice infected with Staphylococcus aureus surviving to day 7, median, low and high quartiles. The procedure:
(§1) The mice have been injected 0.8 ml of Pseudomonas aeruginosa daily culture suspension with a dosage 5×10^8 CFU/mouse or Staphylococcus aureus daily culture suspension with a dosage 10^10 CFU/mouse or Escherichia coli daily culture suspension with a dosage 8×10^8 CFU/mouse. […] In a day after being infected the test mice have been daily (during 3 days) intravenous injected with 100 mg/kg of antibiotics or different pharmaceutical compositions (antibiotic/BHSiO2) watered down with 0.25 ml of normal saline solution.
(§2) It is known that in case of sepsis the quantity of peripheral blood leucocytes can determine the activity of the inflammatory process.
(§3) We have studied the leukocytes quantity of the mice that have survived until the day 7 after sepsis induction, according to the method described above.

For test [2], the system named is Pseudomonas aeruginosa. The test is described as above. The conditions noted are these: mice infected with Pseudomonas aeruginosa surviving to day 7, median, low and high quartiles. The procedure: as §1, §2, §3
For test [3], the system named is Pseudomonas aeruginosa (ATCC N227853 F-51). In words: Experimental sepsis model in mice, survival on the 7th day. The conditions noted are these: P. aeruginosa 5×10^8 CFU/mouse. From the text:
(§4) To determine therapeutic efficiency of fosfamicin and their pharmaceutical compositions including BHSiO2, we used experimental sepsis models and a statistical processing methos of the received data (χ^2) according to [29, 30].
(§5) Microorganisms: Staphylococcus aureus (ATCC No 25923 F-49), Escherichia coli (ATCC No 25922 F-50), Pseudomonas aeruginosa (ATCC N227853 F-51).
(§6) Animals: for the experiments we used hybrid mice (CBA×C57Black/6)CBF1 according to the “Regulations for test animals use” (USSR Ministry of health order supplement No 755 from 12.08. 1977).
(§7) The mice have been injected 0.8 ml of Pseudomonas aeruginosa daily culture suspension with a dosage 5×10^8 CFU/mouse or Staphylococcus aureus daily culture suspension with a dosage 10^10 CFU/mouse or Escherichia coli daily culture suspension with a dosage 8×10^8 CFU/mouse. The control group has been injected with 0.8 ml of normal saline solution (0.9% sodium chloride solution). In a day after being infected the test mice have been daily (during 3 days) intravenous injected with 100 mg/kg of antibiotics or different pharmaceutical compositions (antibiotic/BHSiO2) watered down with 0.25 ml of normal saline solution. The control group of mice has been injected using the same scheme with normal saline solution […].
(§8) Antimicrobial therapy efficiency has been estimated basing on the q-ty of the living mice on the 7th day of the experiment.
(§9) The obtained data stated in Table No 2 reflect the results of 3 independent experiments conducted for each test group.

In test [4] the test system is Staphylococcus aureus (ATCC No 25923 F-49). Described as above. As to conditions: S. aureus 10^10 CFU/mouse.
Excerpt: as §4, §5, §6, §7, §8, §9

Test [5] deals with Escherichia coli (ATCC No 25922 F-50). The description is as above. The conditions noted are these: E. coli 8×10^8 CFU/mouse.
Excerpt: as §4, §5, §6, §7, §8, §9

Where [6] appears, read: 100 mg/kg intravenous daily for 3 days.
The mark [7] stands for this setting: 100 mg/kg intravenous daily for 3 days from a day after infection.

For the compound `C[C@@H]1O[C@@H]1P(=O)(O)O` [Fosfomycin, fosfomycin], the “Leukocytes quantity Me(LQ-HQ)” value in test [1] is on record as 17.38 (15.5-21.5) × 10^9/l; in test [2], 17.13 (16.0-18.63) × 10^9/l. The “Mice survival on the 7th day, survived/infected animals (absolute values)” value in test [3] (setting [6]) is listed as “(10/31)”; in test [4] (setting [6]), “(12/30)”; in test [5] (setting [6]), “(14/30)”. Also, the “Mice survival rate on the 7th day of infection” value in test [3] (setting [7]) amounted to 32.2%; in test [4] (setting [7]) it was 40%; in test [5] (setting [7]) it was 46.6%.

(Values after patent publication US20130164336A1, “ANTIMICROBIAL AND ANTI-INFLAMMATORY ACTION PHARMACEUTICAL COMPOSITION FOR PARENTERAL ADMINISTRATION AND ITS PRODUCTION PROCESS” (priority 2010, published 2013).)
